From patent EP4710949A1, “LYOPHILIZED PREPARATION, LYOPHILIZED SOLUTION, METHODS FOR PRODUCING SAME, AND LIQUID AGENT” (Goryo Chemical, Inc., priority 2023, dated 2024)
Values after ≈ are worked out from the molar mass of the structure shown. Values joined by “and” are separate entries in the source; they are usually repeats but may differ in a detail not shown here. Identical values can stand only once.

Tests used:
[1] = Reconstitution of lyophilized preparation of Compound A in physiological saline (Test Example 8); assay type: physicochemical
Description: (§1) ·Column: Meteoric Core C8, 5 µm, 4.6 mm×150 mm (YMC Co., Ltd.) ·Column temperature: 25°C ·Feeding amount: 1.0 mL/min. ·Wavelength: 254 nm ·Mobile phase A: water/TFA (1,000:1), Mobile phase B: acetonitrile/TFA (1,000:1) ·Feeding of mobile phase Table 1
Physiological saline (physiological salt solution "OTSUKA NORMAL SALINE") was added to a lyophilized preparation produced according to the same formulation as the formulation 32 except the concentration of Compound A in the lyophilization solution, and the preparation was dissolved in the saline so that a liquid amount was 5 mL. Thus, a reconstituted solution (liquid preparation) of Compound A was obtained. The concentration of Compound A in the reconstituted solution was calculated by HPLC measurement, and the content of Compound A was calculated. […]

[2] = Dissolution test of Compound A (Test Example 1); assay type: physicochemical; conditions: 0.03% ps20, pH 7; 0.03 wt% PS20 solution (phosphate buffer)
Description: as §1
1 Milligram of Compound A and 10 mL of a 6.55 mM phosphate buffer (pH: 7) containing 0 wt% to 0.03 wt% of polysorbate 20 (FUJIFILM Wako Pure Chemical Corporation, hereinafter referred to as "PS20") or an aqueous solution of NaH2PO4 (0.33 mg/mL) containing 0 wt% to 0.03 wt% of PS20 were loaded into a glass vial having a volume of 20 mL, and air inside the vial was purged with nitrogen. The vial was loaded into Aluminum Lamizip, and the vial was shaken overnight. The phosphate buffer was prepared by using NaH2PO4 and Na2HPO4. The mixture was filtered with a PVDF filter (Millex-GV, 0.22 µm, PVDF, 4 mm), and the solution after 10 drops of its initial flow was collected. Thus, solutions having formulations 1 to 8 were obtained. The concentrations of Compound A in the resultant solutions were calculated by the HPLC measurement of the solutions.

COCC(=O)N[C@@H](CC(C)C)C(=O)N[C@@H](CCSC)C(=O)Nc1ccc2c(c1)Oc1cc(N)ccc1C21OCc2ccccc21 (some centres unmarked) [Compound A]
measured value of the concentration of Compound A ([1]; lyophilization solution used in the production of the lyophilized preparation (same formulation as formulation 32 except Compound A concentration)): 149.2 µg/mL
appearance of the reconstituted solution ([1]; lyophilized preparation dissolved in physiological saline, 5 mL): clear and free of visible particles
Final concentration of Compound A ([1]; reconstituted solution, 5 mL physiological saline, lyophilized preparation as formulation 32 except Compound A concentration): 29.9 µg/mL and 47.2 µM
Content of Compound A (%) ([1]; reconstituted solution, 5 mL physiological saline, ratio to content in lyophilization solution): 100.1%
solubility [2]: 12.4 µg/mL (≈ 19.6 µM)
